Laboratory results as given in patent US7947626B2 (priority 2006, dated 2011).

Legend:
[1] = system: passaged cortical stem and progenitor cell derived neural networks; type: cell-based, rat
[2] = system: primary cortical stem cell and progenitor cell derived neural networks; type: cell-based, rat

Compound | mean spike rate (MSR) response of the network [1] | raw action potential spike activity, single channel 10 second trace [1] | mean spike rate (MSR) response of the network [2]
NC(CCCP(=O)(O)O)C(=O)O (racemic) [APV, DL-2-amino-5-phosphonovaleric acid] | decrease in MSR | incremental effects of APV on both spike rate and burst pattern | No additional decrease in network activity
cadmium chloride | responsive |  | 
N#Cc1cc2c(cc1[N+](=O)[O-])=NC(=O)C(=O)N=2 [CNQX, 6-cyano-7-nitroquinoxaline-2,3-dione] | further decrease in activity | near total blockade of action potentials | decrease in MSR
